Assay results reported in BigSolDB 2.1.

Cc1ncc([N+](=O)[O-])n1CCO
solubility (mole fraction)
Settings	298.15 K	303.15 K	308.15 K	313.15 K	318.15 K	323.15 K	328.15 K	333.15 K
in transcutol	0.0207	0.0227	0.0244	0.0263	0.0283	0.0303	0.033	0.0361
in water	0.00111	0.00119	0.00128	0.00137	0.00147	0.00159	0.0017	0.00182
